# Measurements as given in patent US20250101019A1 (Insilico Medicine IP Limited, priority 2022, published 2025).
# Experiments:
# ENPP1 [1] = molecular target: T1, ENPP1 (Homo sapiens (Human), UniProt P22413); test: cGAMP-Glo enzymatic assay (2′3′-cGAMP substrate, AMP-Glo readout); format: biochemical; conditions: substrate 2′3′-cGAMP; 25° C. for 60 min; 50 mM Tris pH 8.8
# Method: (§1) Example A: Enzymatic Assay
# (§2) • 1. Diluted compounds in DMSO by hand for 11 points, 3 folds dilution. Then transferred 0.02 μL compounds to 384 assay plate by ECHO. • 2. Added 2 μL specified concentration of ENPP1 to 384 assay plate. Centrifuged 1000 RPM for 1 min. • 3. Added 2 μL specified concentration of ATP to the assay plate. Centrifuged 1000 RPM for 1 min. • 4. Incubated at 25° C. for 60 min. • 5. Added 4 μL AMP-Glo Reagent to the assay plates. • 6. Centrifuged 1000 RPM for 1 min, incubate at 25° C. for 1 hours. • 7. Added 8 μL Kinase Detection Reagent to the assay plates. • 8. Centrifuged 1000 RPM for 1 min, incubated at 25° C. for 1 hours. The final assay reaction mixture contained a buffer of 50 mM Tris pH 8.8, 250 mM NaCl and 0.1% BSA • 9. Read on Envision for US LUM as RLU. • 10. Analyzed the raw data using the equation (V. Data analysis). cGAMP-Glo Assay: • 1. Diluted compounds in DMSO by hand for 11 points, 3 folds dilution. Then transferred 0.02 μL compounds to 384 assay plate by ECHO. • 2. Added 2 μL specified concentration of ENPP1 to 384 assay plate, centrifuged 1000 RPM for 1 min. • 3. Added 2 μL specified concentration of 2′3′-cGAMP to the assay plate, centrifuged 1000 RPM for 1 min. • 4. Incubated at 25° C. for 60 min. • 5. Added 4 μL AMP-Glo Reagent to the assay plates. • 6. Centrifuged 1000 RPM for 1 min, incubated at 25° C. for 1 hours. • 7. Added 8 μL Kinase Detection Reagent to the assay plates. • 8. Centrifuged 1000 RPM for 1 min, incubate at 25° C. for 1 hours. The final assay reaction mixture contained a buffer of 50 mM Tris pH 8.8, 250 mM NaCl and 0.1% BSA • 9. Read on Envision for US LUM as RLU. • 10. Analyzed the raw data using the equation (V. Data analysis).
# ENPP1 [2] = molecular target: T1, ENPP1; test: ATP-Glo enzymatic assay (ATP substrate, AMP-Glo readout); format: biochemical; conditions: 25° C. for 60 min, 50 mM Tris pH 8.8
# Method: as §1, §2
# T1 sequence (P22413 whole entry, species assumed): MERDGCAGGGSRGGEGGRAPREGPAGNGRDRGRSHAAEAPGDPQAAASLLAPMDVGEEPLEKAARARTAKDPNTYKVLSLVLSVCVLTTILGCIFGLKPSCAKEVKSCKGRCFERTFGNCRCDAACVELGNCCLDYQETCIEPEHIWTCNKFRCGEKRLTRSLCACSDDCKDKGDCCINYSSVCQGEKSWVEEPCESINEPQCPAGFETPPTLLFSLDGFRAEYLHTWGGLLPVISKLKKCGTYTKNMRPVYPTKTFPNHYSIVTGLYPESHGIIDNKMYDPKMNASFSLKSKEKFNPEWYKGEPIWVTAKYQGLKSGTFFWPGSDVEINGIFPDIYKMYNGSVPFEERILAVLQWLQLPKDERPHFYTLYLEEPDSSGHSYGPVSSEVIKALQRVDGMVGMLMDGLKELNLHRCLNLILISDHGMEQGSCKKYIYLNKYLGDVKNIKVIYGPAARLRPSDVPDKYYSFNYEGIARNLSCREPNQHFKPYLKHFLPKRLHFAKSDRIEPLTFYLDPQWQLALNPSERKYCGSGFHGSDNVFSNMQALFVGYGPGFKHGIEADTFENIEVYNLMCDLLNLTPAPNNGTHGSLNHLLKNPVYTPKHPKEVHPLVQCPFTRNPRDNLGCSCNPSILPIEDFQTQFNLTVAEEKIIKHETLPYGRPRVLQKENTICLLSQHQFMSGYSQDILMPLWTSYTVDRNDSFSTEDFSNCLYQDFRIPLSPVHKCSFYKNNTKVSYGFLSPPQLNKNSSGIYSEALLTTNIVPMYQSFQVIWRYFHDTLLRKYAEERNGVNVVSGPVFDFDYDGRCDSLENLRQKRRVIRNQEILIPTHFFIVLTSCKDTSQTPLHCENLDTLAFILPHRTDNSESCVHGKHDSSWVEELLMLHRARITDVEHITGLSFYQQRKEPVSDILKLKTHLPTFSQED
SMILES,IC50 (ENPP1 [1]) [nM],IC50 (ENPP1 [2]) [nM]
"COc1ncc2c(c1-c1ccccc1)n(Cc1c(F)cc(S(N)(=O)=O)cc1F)c(=O)n2C [Example 56, 3,5-difluoro-4-((6-methoxy-3-methyl-2-oxo-7-phenyl-2,3-dihydro-1H-imidazo[4,5-c]pyridin-1-yl)methyl)benzenesulfonamide]",< 1,< 1
"COc1ncc2c(c1-c1ccccc1)N(Cc1c(F)cc(S(N)(=O)=O)cc1F)C(=O)C2 [Example 57, 3,5-difluoro-4-((6-methoxy-2-oxo-7-phenyl-2,3-dihydro-1H-pyrrolo[3,2-c]pyridin-1-yl)methyl)benzenesulfonamide]",< 1,< 1
"Cc1ncc2nc(C)n(Cc3c(F)cc(S(N)(=O)=O)cc3F)c2c1C1=CCCC1 [Example 58, 4-((7-(cyclopent-1-en-1-yl)-2,6-dimethyl-1H-imidazo[4,5-c]pyridin-1-yl)methyl)-3,5-difluorobenzenesulfonamide]",< 1,< 1
"Cc1ncc2c(c1-c1ccccc1)n(Cc1c(F)cc(S(N)(=O)=O)cc1F)c(=O)n2C [Example 59, 4-((3,6-dimethyl-2-oxo-7-phenyl-2,3-dihydro-1H-imidazo[4,5-c]pyridin-1-yl)methyl)-3,5-difluorobenzenesulfonamide]",< 1,< 1
"Cc1ncc2nc(CN3CCCC3)n(Cc3c(F)cc(S(N)(=O)=O)cc3F)c2c1-c1ccccc1 [Example 60, 3,5-difluoro-4-((6-methyl-7-phenyl-2-(pyrrolidin-1-ylmethyl)-1H-imidazo[4,5-c]pyridin-1-yl)methyl)benzenesulfonamide]",< 1,< 1
"COc1ncc2c(c1C1=CCCC1)n(Cc1c(F)cc(S(N)(=O)=O)cc1F)c(=O)n2C [Example 61, 4-((7-(cyclopent-1-en-1-yl)-6-methoxy-3-methyl-2-oxo-2,3-dihydro-1H-imidazo[4,5-c]pyridin-1-yl)methyl)-3,5-difluorobenzenesulfonamide]",< 1,< 1
"Cc1ncc2c(c1C1=CCCC1)n(Cc1c(F)cc(S(N)(=O)=O)cc1F)c(=O)n2C [Example 62, 4-((7-(cyclopent-1-en-1-yl)-3,6-dimethyl-2-oxo-2,3-dihydro-1H-imidazo[4,5-c]pyridin-1-yl)methyl)-3,5-difluorobenzenesulfonamide]",< 1,< 1
"Cc1ncc2nc(C)n(Cc3c(F)cc(S(N)(=O)=O)cc3F)c2c1C [Example 63, 3,5-difluoro-4-((2,6,7-trimethyl-1H-imidazo[4,5-c]pyridin-1-yl)methyl)benzenesulfonamide]",< 1,< 1
"CC#Cc1c(C)ncc2nc(C)n(Cc3c(F)cc(S(N)(=O)=O)cc3F)c12 [Example 64, 4-((2,6-dimethyl-7-(prop-1-yn-1-yl)-1H-imidazo[4,5-c]pyridin-1-yl)methyl)-3,5-difluorobenzenesulfonamide]",< 1,< 1
"Cc1ncc2nc(C)n(Cc3ccc(S(N)(=O)=O)cn3)c2c1-c1ccccc1 [Example 65, 6-((2,6-dimethyl-7-phenyl-1H-imidazo[4,5-c]pyridin-1-yl)methyl)pyridine-3-sulfonamide]",< 1,< 1
"Cc1ncc2nc(C)n(Cc3ccc(S(N)(=O)=O)nc3)c2c1-c1ccccc1 [Example 66, 5-((2,6-dimethyl-7-phenyl-1H-imidazo[4,5-c]pyridin-1-yl)methyl)pyridine-2-sulfonamide]",< 1,< 1
"Cc1ncc2nc(C(F)(F)F)n(Cc3ccc(S(N)(=O)=O)cn3)c2c1-c1ccccc1 [Example 67, 6-((6-methyl-7-phenyl-2-(trifluoromethyl)-1H-imidazo[4,5-c]pyridin-1-yl)methyl)pyridine-3-sulfonamide]",< 1,< 1
"Cc1ncc2nc(C)n(Cc3ncc(S(N)(=O)=O)cc3F)c2c1-c1ccccc1 [Example 68, 6-((2,6-dimethyl-7-phenyl-1H-imidazo[4,5-c]pyridin-1-yl)methyl)-5-fluoropyridine-3-sulfonamide]",< 1,< 1
"Cc1ncc2nc(C(F)(F)F)n(Cc3ncc(S(N)(=O)=O)cc3F)c2c1-c1ccccc1 [Example 69, 5-fluoro-6-((6-methyl-7-phenyl-2-(trifluoromethyl)-1H-imidazo[4,5-c]pyridin-1-yl)methyl)pyridine-3-sulfonamide]",< 1,< 1
"Cc1ncc2nc(C3CC3)n(Cc3ncc(S(N)(=O)=O)cc3F)c2c1-c1ccccc1 [Example 70, 6-((2-cyclopropyl-6-methyl-7-phenyl-1H-imidazo[4,5-c]pyridin-1-yl)methyl)-5-fluoropyridine-3-sulfonamide]",< 1,< 1
Cc1ncc2nc(C(F)F)n(Cc3ccc(S(N)(=O)=O)cn3)c2c1-c1ccccc1 [Example 71],< 1,< 1
"Cc1ncc2nc(C(F)F)n(Cc3ncc(S(N)(=O)=O)cc3F)c2c1-c1ccccc1 [Example 72, 6-((2-(difluoromethyl)-6-methyl-7-phenyl-1H-imidazo[4,5-c]pyridin-1-yl)methyl)-5-fluoropyridine-3-sulfonamide]",< 1,< 1
"COc1ncc2nc(C)n(Cc3ncc(S(N)(=O)=O)cc3F)c2c1-c1ccccc1 [Example 73, 5-fluoro-6-((6-methoxy-2-methyl-7-phenyl-1H-imidazo[4,5-c]pyridin-1-yl)methyl)pyridine-3-sulfonamide]",< 1,< 1
"COc1ncc2nc(C)n(Cc3ccc(S(N)(=O)=O)cn3)c2c1-c1ccccc1 [Example 74, 6-((6-methoxy-2-methyl-7-phenyl-1H-imidazo[4,5-c]pyridin-1-yl)methyl)pyridine-3-sulfonamide]",< 1,< 1
"COc1ncc2nc(C(F)F)n(Cc3ccc(S(N)(=O)=O)cn3)c2c1-c1ccccc1 [Example 75, 6-((2-(difluoromethyl)-6-methoxy-7-phenyl-1H-imidazo[4,5-c]pyridin-1-yl)methyl)pyridine-3-sulfonamide]",< 1,< 1
"COc1ncc2nc(C(F)F)n(Cc3ncc(S(N)(=O)=O)cc3F)c2c1-c1ccccc1 [Example 76, 6-((2-(difluoromethyl)-6-methoxy-7-phenyl-1H-imidazo[4,5-c]pyridin-1-yl)methyl)-5-fluoropyridine-3-sulfonamide]",< 1,< 1
COc1ncc2nc(C(F)(F)F)n(Cc3ccc(S(N)(=O)=O)cn3)c2c1-c1ccccc1 [Example 77],< 1,< 1
"COc1ncc2nc(C(F)(F)F)n(Cc3ncc(S(N)(=O)=O)cc3F)c2c1-c1ccccc1 [Example 78, 5-fluoro-6-((6-methoxy-7-phenyl-2-(trifluoromethyl)-1H-imidazo[4,5-c]pyridin-1-yl)methyl)pyridine-3-sulfonamide]",< 1,< 1
"Cc1ncc2c(c1-c1ccccc1)n(Cc1ncc(S(N)(=O)=O)cc1F)c(=O)n2C [Example 79, 6-((3,6-dimethyl-2-oxo-7-phenyl-2,3-dihydro-1H-imidazo[4,5-c]pyridin-1-yl)methyl)-5-fluoropyridine-3-sulfonamide]",< 1,< 1
"COc1ncc2c(c1-c1ccccc1)n(Cc1ncc(S(N)(=O)=O)cc1F)c(=O)n2C [Example 80, 5-fluoro-6-((6-methoxy-3-methyl-2-oxo-7-phenyl-2,3-dihydro-1H-imidazo[4,5-c]pyridin-1-yl)methyl)pyridine-3-sulfonamide]",< 1,< 1
"Cc1ncc2c(c1-c1ccccc1)n(Cc1ccc(S(N)(=O)=O)cn1)c(=O)n2C [Example 81, 6-((3,6-dimethyl-2-oxo-7-phenyl-2,3-dihydro-1H-imidazo[4,5-c]pyridin-1-yl)methyl)pyridine-3-sulfonamide]",< 1,< 1
"COc1ncc2c(c1-c1ccccc1)n(Cc1ccc(S(N)(=O)=O)cn1)c(=O)n2C [Example 82, 6-((6-methoxy-3-methyl-2-oxo-7-phenyl-2,3-dihydro-1H-imidazo[4,5-c]pyridin-1-yl)methyl)pyridine-3-sulfonamide]",< 1,< 1
"[2H]C([2H])([2H])Oc1ncc2nc(C)n(Cc3ccc(S(N)(=O)=O)cc3)c2c1-c1ccccc1 [Example 84, 4-((6-(methoxy-d3)-2-methyl-7-phenyl-1H-imidazo[4,5-c]pyridin-1-yl)methyl)benzenesulfonamide]",< 1,< 1
